Laboratory results as given in EP2929883A1, “Pyrazole derivatives as dihydroorotate dehydrogenase (DHODH) inhibitors” (INSTITUT PASTEUR, priority 2014, dated 2015).
Values after ≈ are worked out from the molar mass of the structure shown.

Test system: measles virus
Assay: microbe, parasite or virus in culture
Conditions: Measles morbillivirus, 24 h

SMILES | MIC50 [µM]
CCOc1nn(-c2ccc(C(C)(C)O)cn2)c(C)c1Cc1ccccc1 [example 34, 2-(6-(4-benzyl-3-ethoxy-5-methyl-1H-pyrazol-1-yl)pyridin-3-yl)propan-2-ol] | > 5
CCOc1nn(-c2ncc(C3CC3)cc2F)c(C)c1Cc1ccccc1 [example 35, 2-(4-benzyl-3-ethoxy-5-methyl-1H-pyrazol-1-yl)-5-cyclopropyl-3-fluoropyridine] | 0.05 to 0.5 (≈ 0.0176 to 0.176 µg/mL)
CCOc1nn(-c2ncc(C3CC3)cc2C#N)c(C)c1Cc1ccccc1 [example 36, 2-(4-benzyl-3-ethoxy-5-methyl-1H-pyrazol-1-yl)-5-cyclopropylnicotinonitrile] | 0.05 to 0.5 (≈ 0.0179 to 0.179 µg/mL)
CCOc1nn(-c2ncccc2F)c(C)c1Cc1ccccc1 [example 37, 2-(4-benzyl-3-ethoxy-5-methyl-1H-pyrazol-yl)-3-fluoropyridine] | > 5
CCOc1nn(-c2ccc(C(F)(F)F)cn2)c(C)c1Cc1ccccc1 [example 38, 2-(4-benzyl-3-ethoxy-5-methyl-1H-pyrazol-1-yl)-5-(trifluoromethyl)pyridine] | 0.5 to 5 (≈ 0.181 to 1.81 µg/mL)
CCOc1nn(-c2ccc(Cl)cn2)c(C)c1Cc1ccccc1 [example 39, 2-(4-benzyl-3-ethoxy-5-methyl-1H-pyrazol-1-yl)-5-chloropyridine] | 0.5 to 5 (≈ 0.164 to 1.64 µg/mL)
CCOc1nn(-c2ncc(Br)cc2F)c(C)c1Cc1ccccc1 [example 40, 2-(4-benzyl-3-ethoxy-5-methyl-1H-pyrazol-1-yl)-5-bromo-3-fluoropyridine] | 0.5 to 5 (≈ 0.195 to 1.95 µg/mL)
CCOc1nn(-c2ccc(Br)cn2)c(C)c1Cc1ccccc1 [example 41, 2-(4-benzyl-3-ethoxy-5-methyl-1H-pyrazol-1-yl)-5-bromopyridine] | > 5
CCOc1nn(-c2ncc(Br)cn2)c(C)c1Cc1ccccc1 [example 42, 2-(4-benzyl-3-ethoxy-5-methyl-1H-pyrazol-1-yl)-5-bromopyrimidine] | 0.05 to 0.5 (≈ 0.0187 to 0.187 µg/mL)
CCOc1c(Cc2ccccc2)c(C)nn1-c1ncc(Br)cn1 [example 43, 2-(4-benzyl-5-ethoxy-3-methyl-1H-pyrazol-1-yl)-5-bromopyrimidine] | > 5
Cc1c(Cc2ccccc2)c(=O)n(-c2ncc(Br)cn2)n1-c1ncc(Br)cn1 [example 44, 4-benzyl-1,2-bis(5-bromopyrimidin-2-yl)-5-methyl-1H-pyrazol-3(2H)-one] | 0.5 to 5 (≈ 0.251 to 2.51 µg/mL)
Cc1c(Oc2c(F)cccc2F)c(OC(C)C)nn1-c1cnc(C2CC2)cn1 [example 45, 2-cyclopropyl-5-(4-(2,6-difluorophenoxy)-3-isopropoxy-5-methyl-1H-pyrazol-1-yl)pyrazine] | 0.0005 to 0.05 (≈ 0.000193 to 0.0193 µg/mL)
Cc1c(Oc2c(F)cccc2F)c(OC(C)C)nn1-c1ncc(C2CC2)cc1C#N [example 46, 5-cyclopropyl-2-(4-(2,6-difluorophenoxy)-3-isopropoxy-5-methyl-1H-pyrazol-1-yl)nicotinonitrile] | 0.0005 to 0.05 (≈ 0.000205 to 0.0205 µg/mL)
Cc1cnc(-n2nc(OC(C)C)c(Oc3c(F)cccc3F)c2C)nc1 [example 47, 2-(4-(2,6-difluorophenoxy)-3-isopropoxy-5-methyl-1H-pyrazol-1-yl)-5-methylpyrimidine] | 0.0005 to 0.05 (≈ 0.00018 to 0.018 µg/mL)
Cc1c(Oc2c(F)cccc2F)c(OC(C)C)nn1-c1cnc(Br)cn1 [example 48, 2-bromo-5-(4-(2,6-difluorophenoxy)-3-isopropoxy-5-methyl-1H-pyrazol-1-yl)pyrazine] | 0.5 to 5 (≈ 0.213 to 2.13 µg/mL)
CCOc1nn(-c2ccc(C3CC3)cn2)c(C)c1Oc1cccc(Cl)c1Cl [example 49, 5-cyclopropyl-2-(4-(2,3-dichlorophenoxy)-3-ethoxy-5-methyl-1H-pyrazol-1-yl)pyridine] | 0.0005 to 0.05 (≈ 0.000202 to 0.0202 µg/mL)

SMILES | MIC50 [µM]
CCc1cnc(-n2nc(OC(C)C)c(Oc3ccccc3F)c2C)nc1 [example 50, 5-ethyl-2-(4-(2-fluorophenoxy)-3-isopropoxy-5-methyl-1H-pyrazol-1-yl)pyrimidine] | 0.0005 to 0.05 (≈ 0.000178 to 0.0178 µg/mL)
Cc1c(Oc2ccccc2F)c(OC(C)C)nn1-c1ncc(C2CC2)cn1 [example 51, 5-cyclopropyl-2-(4-(2-fluorophenoxy)-3-isopropoxy-5-methyl-1H-pyrazol-1-yl)pyrimidine] | 0.0005 to 0.05 (≈ 0.000184 to 0.0184 µg/mL)
Cc1c(Oc2ccccc2F)c(OC(C)C)nn1-c1ncc(C2CC2)cc1C#N [example 52, 5-cyclopropyl-2-(4-(2-fluorophenoxy)-3-isopropoxy-5-methyl-1H-pyrazol-1-yl)nicotinonitrile] | 0.05 to 0.5 (≈ 0.0196 to 0.196 µg/mL)
Cc1c(Oc2ccccc2F)c(OC(C)C)nn1-c1ncc(C2CC2)cc1F [example 53, 5-cyclopropyl-3-fluoro-2-(4-(2-fluorophenoxy)-3-isopropoxy-5-methyl-1H-pyrazol-1-yl)pyridine] | 0.05 to 0.5 (≈ 0.0193 to 0.193 µg/mL)
CCc1cnc(-n2nc(OC(C)C)c(Oc3cccc(F)c3)c2C)nc1 [example 54, 5-ethyl-2-(4-(3-fluorophenoxy)-3-isopropoxy-5-methyl-1H-pyrazol-1-yl)pyrimidine] | 0.05 to 0.5 (≈ 0.0178 to 0.178 µg/mL)
CCOc1nn(-c2ccc(C3CC3)cn2)c(C)c1Oc1ccccc1Br [example 55, 2-(4-(2-bromophenoxy)-3-ethoxy-5-methyl-1H-pyrazol-1-yl)-5-cyclopropylpyridine] | 0.0005 to 0.05 (≈ 0.000207 to 0.0207 µg/mL)
CCOc1nn(-c2ccc(C3CC3)cn2)c(C)c1Oc1ccccc1C(F)(F)F [example 56, 5-cyclopropyl-2-(3-ethoxy-5-methyl-4-(2-(trifluoromethyl)phenoxy)-1H-pyrazol-1-yl)pyridine] | 0.05 to 0.5 (≈ 0.0202 to 0.202 µg/mL)
CCOc1nn(-c2ncc(CC)cn2)c(C)c1Oc1cccc(C(F)(F)F)c1 [example 57, 2-(3-ethoxy-5-methyl-4-(3-(trifluoromethyl)phenoxy)-1H-pyrazol-1-yl)-5-ethylpyrimidine] | 0.05 to 0.5 (≈ 0.0196 to 0.196 µg/mL)
Cc1c(Oc2c(F)cccc2F)c(OC(C)C)nn1-c1ncc(Br)cn1 [example 58, 5-bromo-2-(4-(2,6-difluorophenoxy)-3-isopropoxy-5-methyl-1H-pyrazol-1-yl)pyrimidine] | 0.0005 to 0.05 (≈ 0.000213 to 0.0213 µg/mL)
Cc1c(Oc2c(F)cccc2F)c(OC(C)C)nn1-c1ccc(Br)cn1 [example 59, 5-bromo-2-(4-(2,6-difluorophenoxy)-3-isopropoxy-5-methyl-1H-pyrazol-1-yl)pyridine] | 0.05 to 0.5 (≈ 0.0212 to 0.212 µg/mL)
Cc1nn(-c2ccc(Br)cn2)c(OC(C)C)c1Oc1c(F)cccc1F [example 60, 5-bromo-2-(4-(2,6-difluorophenoxy)-5-isopropoxy-3-methyl-1H-pyrazol-1-yl)pyridine] | > 5
CCc1cnc(-n2nc(OC(C)C)c(Oc3ccc(F)cc3F)c2C)nc1 [example 61, 2-(4-(2,4-difluorophenoxy)-3-isopropoxy-5-methyl-1H-pyrazol-1-yl)-5-ethylpyrimidine] | 0.0005 to 0.05 (≈ 0.000187 to 0.0187 µg/mL)
COc1cnc(-n2nc(OC(C)C)c(Oc3c(F)cccc3F)c2C)nc1 [example 62, 2-(4-(2,6-difluorophenoxy)-3-isopropoxy-5-methyl-1H-pyrazol-1-yl)-5-methoxypyrimidine] | 0.0005 to 0.05 (≈ 0.000188 to 0.0188 µg/mL)
CCOc1nn(-c2ccc(C3CC3)cn2)c(C)c1Oc1ccccc1Cl [example 63, 2-(4-(2-chlorophenoxy)-3-ethoxy-5-methyl-1H-pyrazol-1-yl)-5-cyclopropylpyridine] | 0.0005 to 0.05 (≈ 0.000185 to 0.0185 µg/mL)
CCOc1nn(-c2ncc(CC)cn2)c(C)c1Oc1cc(Cl)ccc1Cl [example 64, 2-(4-(2,5-dichlorophenoxy)-3-ethoxy-5-methyl-1H-pyrazol-1-yl)-5-ethylpyrimidine] | 0.0005 to 0.05 (≈ 0.000197 to 0.0197 µg/mL)
CC(C)Oc1nn(-c2ccc(C3CC3)cn2)cc1Oc1ccccc1F [example 65, 5-cyclopropyl-2-(4-(2-fluorophenoxy)-3-isopropoxy-1H-pyrazol-1-yl)pyridine] | 0.0005 to 0.05 (≈ 0.000177 to 0.0177 µg/mL)
